Source: patent US8304419B2, “Chemical compounds” (priority 2007, dated 2012)
Where a name gives a salt, the structure may show the parent alone.

system: HIV wild type (WTRVA); assay: HeLa cell assay, wild type virus (WTRVA); format: cell-based, HIV-1; design: scale not given here; details: Human immunodeficiency virus 1, HeLa, HeLa cell assay; read-out: IC50 against WTRVA

Compound	IC50 [nM]
CC(C)c1cc(C#N)cc(Oc2c(Cl)ccc(CNC(=O)c3[nH]cnc3Cl)c2F)c1 [Example 159, 4-chloro-N-[(4-chloro-3-{[3-cyano-5-(1-methylethyl)phenyl]oxy}-2-fluorophenyl)methyl]-1H-imidazole-5-carboxamide]	< 10
N#Cc1cc(Cl)cc(Oc2c(Cl)ccc(Cn3cnc4nc[nH]c4c3=O)c2F)c1 [Example 368, 3-chloro-5-({6-chloro-2-fluoro-3-[(6-oxo-6,7-dihydro-1H-purin-1-yl)methyl]phenyl}oxy)benzonitrile trifluoroacetate]	< 10
C#Cc1cc(C#N)cc(Oc2c(Cl)ccc(CNC(=O)c3[nH]cnc3Cl)c2F)c1 [Example 310, 4-chloro-N-({4-chloro-3-[(3-cyano-5-ethynylphenyl)oxy]-2-fluorophenyl}methyl)-1H-imidazole-5-carboxamide]	< 10
Cc1nc(Cl)c(C(=O)NCc2ccc(C(F)F)c(Oc3cc(Cl)cc(C#N)c3)c2F)[nH]1 [Example 254, 4-chloro-N-{[3-[(3-chloro-5-cyanophenyl)oxy]-4-(difluoromethyl)-2-fluorophenyl]methyl}-2-methyl-1H-imidazole-5-carboxamide]	< 10
N#Cc1cc(Cl)cc(Oc2c(C(F)F)ccc(CNC(=O)c3[nH]c(N)nc3Cl)c2F)c1 [Example 253, 2-amino-4-chloro-N-{[3-[(3-chloro-5-cyanophenyl)oxy]-4-(difluoromethyl)-2-fluorophenyl]methyl}-1H-imidazole-5-carboxamide]	< 10
CCc1cc(C#N)cc(Oc2c(Cl)ccc(CNC(=O)c3[nH]cnc3Cl)c2F)c1 [Example 148, 4-chloro-N-({4-chloro-3-[(3-cyano-5-ethylphenyl)oxy]-2-fluorophenyl}methyl)-1H-imidazole-5-carboxamide]	< 10
C=Cc1cc(C#N)cc(Oc2c(Cl)ccc(CNC(=O)c3[nH]cnc3Cl)c2F)c1 [Example 143, 4-chloro-N-({4-chloro-3-[(3-cyano-5-ethenylphenyl)oxy]-2-fluorophenyl}methyl)-1H-imidazole-5-carboxamide]	< 10
Cc1nc(Cl)c(C(=O)NCc2ccc(Cl)c(Oc3cc(Cl)cc(C#N)c3Cl)c2F)[nH]1 [Example 306, 4-chloro-N-({4-chloro-3-[(2,5-dichloro-3-cyanophenyl)oxy]-2-fluorophenyl}methyl)-2-methyl-1H-imidazole-5-carboxamide trifluoroacetate]	< 10
CCCc1cc(C#N)cc(Oc2c(Cl)ccc(CNC(=O)c3[nH]cnc3Cl)c2F)c1 [Example 151, 4-chloro-N-({4-chloro-3-[(3-cyano-5-propylphenyl)oxy]-2-fluorophenyl}methyl)-1H-imidazole-5-carboxamide]	< 10
N#Cc1cc(Cl)cc(Oc2c(Br)ccc(CNC(=O)c3nc(N)[nH]c3Cl)c2F)c1 [Example 239, 2-amino-N-({4-bromo-3-[(3-chloro-5-cyanophenyl)oxy]-2-fluorophenyl}methyl)-4-chloro-1H-imidazole-5-carboxamide]	< 10
Cc1nc(Cl)c(C(=O)NCc2cc(C#N)c(Cl)c(Oc3cc(Cl)cc(C#N)c3)c2F)[nH]1 [Example 304, 4-chloro-N-({4-chloro-3-[(3-chloro-5-cyanophenyl)oxy]-5-cyano-2-fluorophenyl}methyl)-2-methyl-1H-imidazole-5-carboxamide trifluoroacetate]	< 10
C=Cc1cc(C#N)cc(Oc2c(Cl)ccc(CNC(=O)c3[nH]c(C)nc3Cl)c2F)n1 [Example 272, 4-Chloro-N-({4-chloro-3-[(4-cyano-6-ethenyl-2-pyridinyl)oxy]-2-fluorophenyl}methyl)-2-methyl-1H-imidazole-5-carboxamide]	< 10
Cc1cc(C#N)cc(Oc2c(Cl)ccc(CNC(=O)c3[nH]c(C)nc3Cl)c2F)c1 [Example 305, 4-chloro-N-({4-chloro-3-[(3-cyano-5-methylphenyl)oxy]-2-fluorophenyl}methyl)-2-methyl-1H-imidazole-5-carboxamide trifluoroacetate]	< 10
C=CCc1cc(C#N)cc(Oc2c(Cl)ccc(Cn3cnc4nc[nH]c4c3=O)c2F)c1 [Example 373, 3-({6-chloro-2-fluoro-3-[(6-oxo-6,7-dihydro-1H-purin-1-yl)methyl]phenyl}oxy)-5-(2-propen-1-yl)benzonitrile]	< 10
N#C/C=C/c1cc(Cl)cc(Oc2c(Cl)ccc(CNC(=O)c3[nH]cnc3Cl)c2F)c1 [Example 291, 4-chloro-N-{[4-chloro-3-({3-chloro-5-[(E)-2-cyanoethenyl]phenyl}oxy)-2-fluorophenyl]methyl}-1H-imidazole-5-carboxamide]	< 10

same assay, conditions: Human immunodeficiency virus 1, HeLa, HeLa-CD4-LTR-β-gal cells, wild type virus; read-out: WTRVA activity level

Compound	IC50 [nM]
N#Cc1cc(Cl)cc(Oc2c(Cl)ccc(CNC(=O)c3ccncc3)c2F)c1 [Example 89, N-({4-chloro-3-[(3-chloro-5-cyanophenyl)oxy]-2-fluorophenyl}methyl)-4-pyridinecarboxamide trifluoroacetate]	10 to 1000
N#Cc1cc(Cl)cc(Oc2c(Cl)ccc(CNC(=O)c3ccc[nH]3)c2F)c1 [Example 57, N-({4-chloro-3-[(3-chloro-5-cyanophenyl)oxy]-2-fluorophenyl}methyl)-1H-pyrrole-2-carboxamide]	< 10
N#Cc1cc(Cl)cc(Oc2c(Cl)ccc(CNC(=O)c3cc4cc(NC(=O)[C@@H]5CCCN5)ccc4[nH]3)c2F)c1 [Example 118, N-({4-chloro-3-[(3-chloro-5-cyanophenyl)oxy]-2-fluorophenyl}methyl)-5-(L-prolylamino)-1H-indole-2-carboxamide trifluoroacetate]	< 10
N#Cc1cc(Cl)cc(Oc2c(Cl)ccc(CNC(=O)c3cc4ccccc4o3)c2F)c1 [Example 47, N-({4-chloro-3-[(3-chloro-5-cyanophenyl)oxy]-2-fluorophenyl}methyl)-1-benzofuran-2-carboxamide trifluoroacetate]	10 to 1000
N#Cc1cc(Cl)cc(Oc2c(Cl)ccc(CNC(=O)c3ccccn3)c2F)c1 [Example 85, N-({4-chloro-3-[(3-chloro-5-cyanophenyl)oxy]-2-fluorophenyl}methyl)-2]	< 10
Cc1nnsc1C(=O)NCc1ccc(Cl)c(Oc2cc(Cl)cc(C#N)c2)c1F [Example 91, N-({4-chloro-3-[(3-chloro-5-cyanophenyl)oxy]-2-fluorophenyl}methyl)-4-methyl-1,2,3-thiadiazole-5-carboxamide]	< 10
CC(=O)Nc1ccc2cc(C(=O)NCc3ccc(Cl)c(Oc4cc(Cl)cc(C#N)c4)c3F)[nH]c2c1 [Example 122, 6-(acetylamino)-N-({4-chloro-3-[(3-chloro-5-cyanophenyl)oxy]-2-fluorophenyl}methyl)-1H-indole-2-carboxamide]	< 10
CC(=O)c1ccc2cc(C(=O)NCc3ccc(Cl)c(Oc4cc(Cl)cc(C#N)c4)c3F)[nH]c2c1 [Example 78, 6-acetyl-N-({4-chloro-3-[(3-chloro-5-cyanophenyl)oxy]-2-fluorophenyl}methyl)-1H-indole-2-carboxamide trifluoroacetate]	< 10
CC(=O)Nc1ccc2[nH]c(C(=O)NCc3ccc(Cl)c(Oc4cc(Cl)cc(C#N)c4)c3F)nc2c1 [Example 125, 5-(acetylamino)-N-({4-chloro-3-[(3-chloro-5-cyanophenyl)oxy]-2-fluorophenyl}methyl)-1H-benzimidazole-2-carboxamide]	< 10
COc1ccc(C(=O)NCc2ccc(Cl)c(Oc3cc(Cl)cc(C#N)c3)c2F)cn1 [Example 42, N-({4-chloro-3-[(3-chloro-5-cyanophenyl)oxy]-2-fluorophenyl}methyl)-6-(methyloxy)-3-pyridinecarboxamide]	10 to 1000
COc1ccc2c(C(=O)NCc3ccc(Cl)c(Oc4cc(Cl)cc(C#N)c4)c3F)c[nH]c2c1 [Example 18, N-({4-chloro-3-[(3-chloro-5-cyanophenyl)oxy]-2-fluorophenyl}methyl)-6-(methyloxy)-1H-indole-3-carboxamide]	10 to 1000
CSc1nc(C(=O)NCc2ccc(Cl)c(Oc3cc(Cl)cc(C#N)c3)c2F)cn1C(c1ccccc1)(c1ccccc1)c1ccccc1 [Example 65, N-({4-chloro-3-[(3-chloro-5-cyanophenyl)oxy]-2-fluorophenyl}methyl)-2-(methylthio)-1-(triphenylmethyl)-1H-imidazole-4-carboxamide trifluoroacetate]	10 to 1000
CSc1ncccc1C(=O)NCc1ccc(Cl)c(Oc2cc(Cl)cc(C#N)c2)c1F [Example 86, N-({4-chloro-3-[(3-chloro-5-cyanophenyl)oxy]-2-fluorophenyl}methyl)-2-(methylthio)-3-pyridinecarboxamide trifluoroacetate]	10 to 1000
N#Cc1cc(Cl)cc(Oc2c(Cl)ccc(CNC(=O)c3cn(C(c4ccccc4)(c4ccccc4)c4ccccc4)cn3)c2F)c1 [Example 83, N-({4-chloro-3-[(3-chloro-5-cyanophenyl)oxy]-2-fluorophenyl}methyl)-1-(triphenylmethyl)-1H-imidazole-4-carboxamide]	> 1000
Cn1cnc(C(=O)NCc2ccc(Cl)c(Oc3cc(Cl)cc(C#N)c3)c2F)c1 [Example 64, N-({4-chloro-3-[(3-chloro-5-cyanophenyl)oxy]-2-fluorophenyl}methyl)-1-methyl-1H-imidazole-4-carboxamide trifluoroacetate]	10 to 1000
CN1CCCC1CCOc1ccc2[nH]c(C(=O)NCc3ccc(Cl)c(Oc4cc(Cl)cc(C#N)c4)c3F)cc2c1 (stereo not drawn) [Example 104, N-({4-chloro-3-[(3-chloro-5-cyanophenyl)oxy]-2-fluorophenyl}methyl)-5-{[2-(1-methyl-2-pyrrolidinyl)ethyl]oxy}-1H-indole-2-carboxamide]	< 10
CC(=O)c1ccc2[nH]c(C(=O)NCc3ccc(Cl)c(Oc4cc(Cl)cc(C#N)c4)c3F)cc2c1 [Example 80, 5-acetyl-N-({4-chloro-3-[(3-chloro-5-cyanophenyl)oxy]-2-fluorophenyl}methyl)-1H-indole-2-carboxamide trifluoroacetate]	< 10
N#Cc1cc(Cl)cc(Oc2c(Cl)ccc(CNC(=O)c3cc4cc(OC[C@H]5CNCCO5)ccc4[nH]3)c2F)c1 [Example 24, N-({4-Chloro-3-[(3-chloro-5-cyanophenyl)oxy]-2-fluorophenyl}methyl)-5-{[(2R)-2-morpholinylmethyl]oxy}-indole-2-carboxamide]	< 10
